Data on 2 compounds can be found in patent US20090104297A1, “HERBAL COMPOSITION FOR TREATMENT OF INFECTIONS CAUSED BY DERMATOPHYTES” (Piramal Life Sciences Limited, priority 2006, published 2009).

Converted amounts (≈) assume the structure as drawn. Like-named read-outs stand apart in the source and are kept apart here. Where only a bound is given, the exact number is not on record here.

For one test, the system named is Candida albicans. Description: In vitro susceptibility testing (MIC) by macro broth dilution method (CLSI M-38). In kind it is cell-based. As to the method:
(§1) In vitro susceptibility testing (Minimum Inhibitory Concentration) by macro broth dilution method—(CLSI method-M-38) was carried out as described in literature.
(§2) Reference method for broth dilution antifungal susceptibility testing of yeasts-Approved standard. NCCLS document M27-A. National Committee for Clinical Laboratory Standards, Wayne, Pa.;
(§3) Reference method for broth dilution antifungal susceptibility testing of filamentous fungi-Approved standard. NCCLS document M38-A. National Committee for Clinical Laboratory Standards, Wayne, Pa.
(§4) Candida albicans, Trichophyton mentagrophytes and Micropsporum gypseum were used as test organisms.
(§5) RPMI 1640 (Sigma) with L-glutamine but without sodium bicarbonate and buffered at pH 7.0 with 3-(N-morpholino) propanesulfonic acid monosodium salt (MOPS), was the medium used for broth macro dilution susceptibility testing.
(§6) The extract of example 1, compound 1 and ketoconazole as standard.
The samples were prepared in methanol at 100 times the final concentration, followed by further dilutions (1:10) in RPMI 1640 medium to yield ten times the final strength required for the test. Purified component was also diluted in the same manner in methanol alone. Aliquots (0.1 ml) of each extract were dispensed into tubes. The final concentrations of extract ranged from 100-10 μg/ml. […]
(In general: Dilution methods test growth across graded concentrations, often in twofold steps.)

In test [1] the test system is Trichophyton mentagrophytes. Nature of the test: Agar well diffusion method, zone of inhibition. It is filed as cell-based. As to conditions: preparative HPLC fractions; concentration not given. How it is done:
The given extracts were tested against a panel of microorganisms, including Candida albicans 10231, Microsporum gypseum and Trichophyton mentagrophytes.
The strains were cultured overnight at 30° C. in Sabouraud dextrose agar. Colonies from subcultures were suspended in saline and vortexed to give a transmittance of 75-80% at 530 nm (T530 nm≈10^8 cfu/ml). Predecided volume of inoculum was mixed with molten agar at 40° C. and poured into sterile petri plates. Plates were allowed to set and solidify. Then wells (6 mm in diameter) were cut from the agar and 0.05 ml of extract solution was delivered into them. After incubation for 48 hours, at 28° C., all plates were examined for any zones of growth inhibition, and the diameters of these zones were measured in millimeters.
The stock solutions of 10 mg/ml of extracts of example 1 was prepared by suspending extract in methanol and sonicating for 10 seconds. Further dilutions were made to get a concentration range of 5, 2 and 1 mg/ml.
Preparative TLC samples were analyzed for the activity by Agar well diffusion method as described in example 2.
All preparative HPLC fractions were analyzed for activity by Agar well diffusion method as described in example 2.

Test [2] relates to Trichophyton mentagrophytes. Description: In vitro susceptibility testing (MIC) by macro broth dilution method (CLSI M-38). As to conditions: for MIC: Trichophyton mentagrophytes. It is filed as cell-based. How it is done: as §1, §2, §3, §4, §5, §6
(§7) The samples were prepared in methanol at 100 times the final concentration, followed by further dilutions (1:10) in RPMI 1640 medium to yield ten times the final strength required for the test. Purified component was also diluted in the same manner in methanol alone. Aliquots (0.1 ml) of each extract were dispensed into tubes. The final concentrations of extract ranged from 100-10 μg/ml.
(§8) The cultures were grown on PDA agar slants at 28° C. for 7 days. The growth was covered with sterile saline and scraped to get a growth suspension. The resulting mixture of conidia or sporangiospores and hypal fragments was transferred to a sterile test tube. The heavy particles were allowed to settle and upper homogenous suspension was transferred to another tube. These suspensions were adjusted to an optical density that ranged from 0.09 to 0.11 (80 to 82% transmittance). These stock suspensions were further diluted 1:100 with medium to obtain test inoculum (0.4×10^4 to 5×10^4 cfu/ml).
(§9) Finally the tubes were inoculated with 0.1 ml of sample dilutions and 0.9 ml of the above-prepared inoculum. […] Growth control tube received only diluent without sample. […]

Another test concerns Micropsporum gypseum. The description is as above. It is filed as cell-based, Microsporum gypseum. As to conditions: for MIC: Nannizzia gypsea. How it is done:
as §1, §2, §3, §4, §5, §6, §7, §8, §9

What is called MIC is the lowest concentration found to suppress growth. As for `COc1cc2[nH]c3ccccc3c2cc1C` [Compound 1, 2-methoxy-3-methyl-9H-carbazole], the MIC in the test on Candida albicans (24 h, pH 7, read-out: MIC values, Candida ablicans) worked out at 30 µg/mL (≈ 142 µM); in test [2] (48 h, pH 7, read-out: MIC values, Trichophyton mentagrophytes), 6 µg/mL (≈ 28.4 µM); in the test with Micropsporum gypseum (48 h, pH 7, read-out: MIC values, Microsporum gypseum), 4 µg/mL (≈ 18.9 µM). Besides, the “zone of inhibition (tested against Trichophyton mentagrophytes culture)” value in test [1] is recorded as above 25 mm. In test [2] (macro broth dilution), the “MIC against dermatophytes versus ketoconazole (conclusion of Table 3), Trichophyton mentagrophytes” value was “Conclusion: MIC of compound 1 against dermatophytes is comparable with ketoconazole”. The “MIC against dermatophytes versus ketoconazole (conclusion of Table 3), Microsporum gypseum” value against Micropsporum gypseum (macro broth dilution) was “Conclusion: MIC of compound 1 against dermatophytes is comparable with ketoconazole”.
For the compound `CC(=O)N1CCN(c2ccc(OCC3COC(Cn4ccnc4)(c4ccc(Cl)cc4Cl)O3)cc2)CC1` (stereo not drawn) [Ketoconazole, ketoconazole, reference compound], the MIC with Candida albicans (macro broth dilution, RPMI 1640 pH 7.0, 37° C. for 24 hours, 100% growth inhibition, read-out: MIC values, Candida ablicans) came to 5 µg/mL (≈ 9.41 µM); in test [2] (macro broth dilution, RPMI 1640 pH 7.0, 28° C. for 48 hours, 100% growth inhibition, read-out: MIC values, Trichophyton mentagrophytes) it was 4 µg/mL (≈ 7.53 µM); with Micropsporum gypseum (macro broth dilution, RPMI 1640 pH 7.0, 28° C. for 48 hours, 100% growth inhibition, read-out: MIC values, Microsporum gypseum) it was 4 µg/mL (≈ 7.53 µM).
